Test results published in patent US9957271B2, “Substituted bicyclic aza-heterocycles and analogues as sirtuin modulators” (GlaxoSmithKline, LLC, priority 2012, dated 2018).
Like-named read-outs stand apart in the source and are kept apart here.

Biological target: T1, SIRT1 (Homo sapiens, UniProt Q96EB6)
T1 sequence (Q96EB6 1-747): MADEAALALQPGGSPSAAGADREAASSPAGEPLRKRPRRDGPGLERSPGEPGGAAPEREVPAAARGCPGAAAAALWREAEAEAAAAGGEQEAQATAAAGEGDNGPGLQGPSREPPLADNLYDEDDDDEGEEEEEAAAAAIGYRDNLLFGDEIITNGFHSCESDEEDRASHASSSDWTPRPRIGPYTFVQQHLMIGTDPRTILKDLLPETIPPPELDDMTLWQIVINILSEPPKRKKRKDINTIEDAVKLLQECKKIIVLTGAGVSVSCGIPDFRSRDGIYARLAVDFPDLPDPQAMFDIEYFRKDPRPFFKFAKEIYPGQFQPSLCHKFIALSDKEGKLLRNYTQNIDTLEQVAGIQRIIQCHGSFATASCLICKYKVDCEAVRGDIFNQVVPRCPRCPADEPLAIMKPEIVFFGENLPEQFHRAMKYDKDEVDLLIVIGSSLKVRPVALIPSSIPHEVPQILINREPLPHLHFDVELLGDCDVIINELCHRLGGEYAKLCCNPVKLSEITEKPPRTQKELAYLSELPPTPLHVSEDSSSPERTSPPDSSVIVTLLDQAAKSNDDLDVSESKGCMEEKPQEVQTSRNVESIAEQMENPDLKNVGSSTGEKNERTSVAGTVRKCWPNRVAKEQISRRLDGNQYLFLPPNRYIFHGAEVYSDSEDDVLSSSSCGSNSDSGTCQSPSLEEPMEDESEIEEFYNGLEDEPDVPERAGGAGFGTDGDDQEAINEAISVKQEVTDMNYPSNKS
Experiment: TAMRA based mass spectrometry assay of SIRT1 activity
Assay type: biochemical
Conditions: for Emax: read-out: TAMRA % Fold Act
Summary of the method: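 Recombinant N-terminal His-tagged human SIRT1 (10 nM, E. coli) incubated 25 min at 25 °C with 0.5 μM 5TMR-labelled p53-derived acetyl-peptide and 120 μM βNAD+ in Tris-acetate pH 8 buffer with DTT and 0.05% BSA, compound at varying concentrations. Stopped with formic acid; deacetylated peptide or OAADPR measured by mass spectrometry relative to DMSO controls.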

[1] = TAMRA assay, concentration giving 150% activation of SIRT1
[2] = TAMRA assay, percent maximum fold activation
[3] = TAMRA peptide substrate, concentration giving 150% activation of SIRT1
[4] = TAMRA peptide substrate, percent maximum fold activation
[5] = concentration of test compound giving 150% activation of SIRT1, TAMRA peptide substrate
[6] = percent maximum fold activation of SIRT1, TAMRA peptide substrate

| TAMRA EC1.5 (μM) [1] | Emax [2] | Compound | further results |
| --- | --- | --- | --- |
| A (EC1.5<1 μM) | ≥ 350% | O=C(Nc1cnc2ccc(-c3ccccc3Cl)nn12)c1cccc(N2CCOCC2)n1 [Compound 307] |  |
| A (EC1.5<1 μM) | < 350% | CCOc1ccc(NC(=O)c2c(C)nc3ccc(-c4cccc(C)c4)nn23)nn1 [Compound 760] |  |
| B (EC1.5 1-25 μM) | ≥ 350% | Cc1cc(NC(=O)c2cnc3ccc(-c4ccccc4OCC(O)CO)nn23)ccn1 (stereo not shown) [Compound 370] |  |
| B (EC1.5 1-25 μM) | < 350% | Cc1cc(NC(=O)c2cnc3ccc(-c4cccc(OCC(O)CO)c4)nn23)ccn1 (stereo not shown) [Compound 374] |  |
| B (EC1.5 1-25 μM) | < 350% | N#Cc1ccccc1-c1ccc2ncc(C(=O)Nc3cccc(CN4CCOCC4)n3)n2n1 [Compound 202] |  |
|  |  | Cc1nn2ccc(-c3ccccc3C(F)(F)F)nc2c1C(=O)Nc1ccncn1 [Compound 547] | TAMRA EC1.5 [3]: A (EC1.5<1 μM); Emax [4]: ≥ 350% |
|  |  | O=C(Nc1cc(N2CCOCC2)ccn1)c1cnc2ccc(-c3ccccc3C(F)(F)F)nn12 [Compound 176] | TAMRA EC1.5 (μM) [5]: A (EC1.5<1 μM); Emax [6]: < 350% |
|  |  | O=C(Nc1nccs1)c1cnc2ccc(-c3ccccc3C(F)F)nn12 [Compound 33, 6-(2-(difluoromethyl)phenyl)-N-(thiazol-2-yl)imidazo[1,2-b]pyridazine-3-carboxamide] | TAMRA EC1.5 (μM) [5]: B (EC1.5 1-25 μM); Emax [6]: < 350% |
|  |  | COc1nccnc1NC(=O)c1cnc2c(C)cc(-c3ccccc3C(F)(F)F)nn12 [Compound 595] | TAMRA EC1.5 [3]: A (EC1.5<1 μM); Emax [4]: < 350% |
| B (EC1.5 1-25 μM) | < 350% | Cc1nc2ccc(-c3ccccc3C(F)(F)F)nn2c1NC(=O)c1cnccn1 [Compound 376] |  |
| A (EC1.5<1 μM) | ≥ 350% | CCOc1cc(NC(=O)c2cnn3ccc(-c4ccccc4C(F)(F)F)nc23)ccn1 [Compound 643] |  |
|  |  | Cc1cccc(NC(=O)c2cnc3ccc(-c4cccc(OCC(O)CO)c4)nn23)n1 (stereo not shown) [Compound 416] | TAMRA EC1.5 [3]: A (EC1.5<1 μM); Emax [4]: ≥ 350% |
| A (EC1.5<1 μM) | < 350% | Cc1nccc(NC(=O)c2cnn3ccc(-c4ccccc4OC(F)(F)F)nc23)c1C [Compound 613] |  |
|  |  | COc1cccc(C(=O)Nc2c(C)nn3ccc(-c4ccccc4C(F)(F)F)nc23)n1 [Compound 576] | TAMRA EC1.5 [3]: C (EC1.5>25 μM); Emax [4]: < 350% |
| A (EC1.5<1 μM) | ≥ 350% | Cc1ccnc(NC(=O)c2c(C)nc3ccc(-c4ccccc4OC[C@H](O)CO)nn23)c1 [Compound 817] |  |
| B (EC1.5 1-25 μM) | ≥ 350% | Cc1cc(C)c(NC(=O)c2c(C)nn3ccc(-c4ccccc4C(F)(F)F)nc23)cn1 [Compound 708] |  |
|  |  | O=C(Nc1ccccn1)c1cnc2ccc(-c3cccc(C(F)(F)F)c3)nn12 [Compound 4, N-(pyridin-2-yl)-6-(3-(trifluoromethyl)phenyl)imidazo[1,2-b]pyridazine-3-carboxamide] | TAMRA EC1.5 (μM) [5]: B (EC1.5 1-25 μM); Emax [6]: < 350% |
|  |  | Cc1cc(-c2ccccc2C(F)(F)F)nn2c(NC(=O)c3cscn3)cnc12 [Compound 411] | TAMRA EC1.5 [3]: A (EC1.5<1 μM); Emax [4]: ≥ 350% |
| A (EC1.5<1 μM) | ≥ 350% | CCOc1nccc(NC(=O)c2c(C)nn3ccc(-c4ccccc4C(F)(F)F)nc23)n1 [Compound 786] |  |
|  |  | Cc1cc(-c2ccccc2C(F)(F)F)nn2c(NC(=O)c3cnccn3)cnc12 [Compound 408] | TAMRA EC1.5 [3]: A (EC1.5<1 μM); Emax [4]: ≥ 350% |
| A (EC1.5<1 μM) | ≥ 350% | Cc1cccc(NC(=O)c2cnn3ccc(-c4ccccc4OC(F)(F)F)nc23)n1 [Compound 617] |  |

| TAMRA EC1.5 (μM) [1] | Emax [2] | Compound | further results |
| --- | --- | --- | --- |
|  |  | Cc1nc(NC(=O)c2cnc3c(C)cc(-c4ccccc4C(F)(F)F)nn23)sc1C [Compound 588] | TAMRA EC1.5 [3]: B (EC1.5 1-25 μM); Emax [4]: < 350% |
| A (EC1.5<1 μM) | < 350% | Cc1ccncc1NC(=O)c1c(C)nn2ccc(-c3ccccc3C(F)(F)F)nc12 [Compound 649] |  |
| B (EC1.5 1-25 μM) | < 350% | Cc1nc2ccc(-c3ccccc3C(F)(F)F)nn2c1NC(=O)c1cccc(OCC(O)CO)n1 (stereo not shown) [Compound 384] |  |
|  |  | Cc1noc(C)c1-c1ccc2ncc(C(=O)Nc3ccnc(N4CCCC4)c3)n2n1 [Compound 54, 6-(3,5-dimethylisoxazol-4-yl)-N-(2-(pyrrolidin-1-yl)pyridin-4-yl)imidazo[1,2-b]pyridazine-3-carboxamide] | TAMRA EC1.5 (μM) [5]: C (EC1.5>25 μM); Emax [6]: < 350% |
|  |  | Cc1cc(C)nc(NC(=O)c2cnc3ccc(-c4cccc(OCC(O)CO)c4)nn23)c1 (stereo not shown) [Compound 417] | TAMRA EC1.5 [3]: A (EC1.5<1 μM); Emax [4]: ≥ 350% |
|  |  | Cc1cc(-c2ccccc2C(F)(F)F)nn2c(C(=O)Nc3ccncn3)cnc12 [Compound 515] | TAMRA EC1.5 [3]: A (EC1.5<1 μM); Emax [4]: ≥ 350% |
|  |  | CS(=O)(=O)c1cccc(-c2ccc3ncc(C(=O)Nc4ccccn4)n3n2)c1 [Compound 12] | TAMRA EC1.5 (μM) [5]: C (EC1.5>25 μM); Emax [6]: < 350% |
|  |  | O=C(Nc1cccc(OC(CO)CO)n1)c1cnc2ccc(-c3ccccc3C(F)(F)F)nn12 [Compound 423, N-(6-((1,3-dihydroxypropan-2-yl)oxy)pyridin-2-yl)-6-(2-(trifluoromethyl)phenyl)imidazo[1,2-b]pyridazine-3-carboxamide] | TAMRA EC1.5 [3]: A (EC1.5<1 μM); Emax [4]: ≥ 350% |
|  |  | Cc1nc2ccc(-c3ccccc3OC(F)(F)F)nn2c1C(=O)Nc1cnccn1 [Compound 471] | TAMRA EC1.5 [3]: A (EC1.5<1 μM); Emax [4]: ≥ 350% |
| B (EC1.5 1-25 μM) | < 350% | Cc1nc2ccc(-c3ccccc3Cl)nn2c1NC(=O)c1nccs1 [Compound 353] |  |
| A (EC1.5<1 μM) | ≥ 350% | Cc1ccc(NC(=O)c2c(C)nn3ccc(-c4ccccc4C(F)(F)F)nc23)nc1 [Compound 684] |  |
|  |  | CCOc1nccc(NC(=O)c2cnc3c(C)cc(-c4ccccc4C(F)(F)F)nn23)n1 [Compound 596] | TAMRA EC1.5 [3]: A (EC1.5<1 μM); Emax [4]: ≥ 350% |
| A (EC1.5<1 μM) |  | O=C(Nc1cnc2ccc(-c3ccccc3C(F)(F)F)nn12)c1cccc(OCC(O)CO)n1 (stereo not shown) [Compound 235] | TAMRA % Fold Act [2]: A (Fold activation ≥350%) |
|  |  | O=C(Nc1ccnc(N2CCC2)c1)c1cnc2ccc(-c3ccccc3C(F)F)nn12 [Compound 52] | TAMRA EC1.5 (μM) [5]: A (EC1.5<1 μM); Emax [6]: ≥ 350% |
| A (EC1.5<1 μM) | ≥ 350% | O=C(Nc1cnc2ccc(-c3ccccc3F)nn12)c1cccc(N2CCC2)n1 [Compound 302] |  |
|  |  | O=C(Nc1cnc2ccc(-c3ccccc3C(F)(F)F)nn12)c1ccc(CN2CCOCC2)nc1 [Compound 147] | TAMRA EC1.5 (μM) [5]: B (EC1.5 1-25 μM); Emax [6]: < 350% |
| B (EC1.5 1-25 μM) | < 350% | Cc1nc(C(=O)Nc2cnc3ccc(-c4ccccc4F)nn23)cs1 [Compound 299] |  |
| A (EC1.5<1 μM) | ≥ 350% | Cc1cc(NC(=O)c2cnc3c(C)c(C)c(-c4ccccc4C(F)(F)F)nn23)cc(C)n1 [Compound 361] |  |
| B (EC1.5 1-25 μM) | ≥ 350% | O=C(Nc1ccccn1)c1cnc2ccc(-c3ccccc3OCC(O)CO)nn12 (stereo not shown) [Compound 368] |  |
|  |  | O=C(Nc1ccncc1)c1cnc2ccc(-c3cccc(F)c3Cl)nn12 [Compound 181] | TAMRA EC1.5 (μM) [5]: B (EC1.5 1-25 μM); Emax [6]: < 350% |
